Consider 15 compounds from publication PMC7011943, “Discovery of novel PDE9A inhibitors with antioxidant activities for treatment of Alzheimer’s disease” (Journal of Enzyme Inhibition and Medicinal Chemistry, 2017).

A word on the inhibition: it is the share of the control response that was lost under treatment. Read a high inhibition as a response far below the control. One may read the IC50 as the concentration at which inhibition is half-maximal. Broadly, the viability is a read-out of living cells in per cent, often relative to untreated cells.

Entries after “also recorded” stand apart in the source; their conditions may differ. Where two headings read alike, the source gives them in different places.

Data set [1] in a line: Antioxidant activity, oxygen radical absorbance capacity fluorescein (ORAC-FL) method. The note with it: for ORAC: samples 1–10 μM. The method, then:
The antioxidant activity was determined by the modified oxygen radical absorbance capacity fluorescein (ORAC-FL) method[31]^,[32]. All the assays were diluted with 75 mM phosphate buffer (pH 7.4). The final reaction mixture was 200 μl. Test compound (20 μl) and fluorescein (120 μl, 150 nM final concentration) were placed in the wells of a black 96-well plate. After the mixture was incubated at 37 °C for 15 min, AAPH solution (60 μl, 12 mM final concentration) was added. The plate was placed in a Spectrafluor Plus plate reader (Tecan, Crailsheim, Germany) and the fluorescence was recorded every minute for 4 h with excitation at 485 nm and emission at 535 nm. Trolox was used as standard (1–8 μM, final concentration). A blank (FL + AAPH) in phosphate buffer instead of test compounds and trolox calibration were performed in each assay. The samples were measured at different concentration (1–10 μM). All the reaction mixture was prepared fourfold and at least three independent assays were performed for each sample. Fluorescence in time course was normalised on basis of the blank (without antioxidants). The ORAC-FL values were calculated as the reported method. ORAC-FL values were expressed as trolox equivalents.

Data set [2] deals with SH-SY5Y cells. As to the kind of experiment: In vitro cell viability assay (MTT). The note with it: for cytotoxicity to SH-SY5Y cells (in words): 48 h, up to 100 μM. Type of data set: cell-based, human. The method, then: (§1) SH-SY5Y cells were used for the cytotoxicity test by the MTT (3–(4, 5-dimethyl-2-thiazolyl)-2,5-diphenyl-2-H-tetrazoliumbromide) method. After incubation of the SH-SY5Y cells (5 × 10^3) in a 96-well plate for 24 h, compounds at concentrations of 10, 20, 40, 60, 80, and 100 μM, were added. After incubation for 48 h, MTT solution was added to each cell well and the system was further inoculated for 4 h at 37 °C. The purple formazan dye and 120 μl DMSO were added to the cells and the absorbance was measured at 570 nm using EnSpire-2300 Multimode Reader (PerkinElmer, Waltham, MA).

For data set [3], the target named is T1, PDE1B (Homo sapiens, UniProt Q01064).
T1 construct: The catalytic domains of PDE1B (10–516) and PDE8A (480–820); made in house
As to the kind of experiment: Enzymatic assay against PDE1B (3H-cGMP substrate). As to conditions: 1000 nM (1 μM). Type of data set: biochemical.
Experimental: (§2) The enzymatic activities of PDE1B and PDE8A were assayed by using ^3H-cGMP and ^3H-cAMP as the substrates, respectively, following the same procedure for PDE9A.

Data set [4] concerns the target T2, PDE8A (Homo sapiens, UniProt O60658).
T2 construct: The catalytic domains of PDE1B (10–516) and PDE8A (480–820); made in house
Put plainly: Enzymatic assay against PDE8A (3H-cAMP substrate). Type of data set: biochemical.
Experimental: as §2

Data set [5] concerns the target T3, PDE9A (Homo sapiens, UniProt O76083).
T3 construct: pET-PDE9A2 plasmid (catalytic domain, 181–506); made in house; host or cells: E. coli BL21 (Codonplus)
As to the kind of experiment: Enzymatic assay against PDE9A (3H-cGMP substrate). Type of data set: biochemical.
Experimental: The E. coli cells carrying pET-PDE9A2 was grown in LB medium (containing 100 μg/ml ampicillin and 0.4% glucose) at 37 °C until OD600 = 0.6–0.8. 0.1 mM iso-propyl-β-D-thiogalactopyranoside was added to induce the PDE9A2 protein expression at 15 °C for 20 h. PDE9A was purified on the nickel nitriloacetic acid (Ni-NTA) column (Qiagen, Hilden, Germany) and eluted with 0.25 M imidazole. The concentration of PDE9A was estimated by the absorbance at 280 nm (calculated using ProtParam software, http://web.expasy.org/protparam). A typical batch of purification yielded 30–60 mg PDE9A2 protein from a 0.5 l cell culture. The PDE9A2 proteins had purity greater than 90% as shown by sodium dodecyl sulphate polyacrylamide gel electrophoresis (SDS-PAGE).
The enzymatic activities of the catalytic domain of PDE9A2 were measured by using ^3H-cGMP as the substrate and the assay buffer of 50 mM Tris-HCl (pH 8.0), 10 mM MgCl2, and 1 mM DTT. Each assay used ^3H-cGMP 20,000–30,000 cpm. The reaction was carried out at room temperature (25 °C) for 15 min and then terminated by addition of 0.2 M ZnSO4. The reaction product was precipitated by 0.2 N Ba(OH)2, whereas unreacted ^3H-cGMP remained in the supernatant. […] At least eight concentrations of inhibitors were measured parallel in each measurement, resulting an inhibition curve to calculate the IC50 value of inhibitors by nonlinear regression. Each measurement was repeated at least three times. The mean and standard deviation statistics of these three IC50 values were used as the final IC50 value and the corresponding SD.

Data set [6] in a line: In vitro cell viability assay (MTT). Type of data set: cell-based, human. The note with it: human, SH-SY5Y cells, 48 h incubation, read-out: cellular viability. On the procedure: as §1
Data set [7] concerns PDE1B. Put plainly: Enzymatic assay against PDE1B (3H-cGMP substrate). Type of data set: biochemical. As to conditions: estimated from inhibition at 1 μM.
Experimental: as §2
For data set [8], the system named is PDE1B. The note with it: printed under head 'Inhibition of PDE1B at 1000 nM'; cited from earlier work.
Setting [9] is: Table 1 and text, means of three independent determinations, read-out: IC50±SD.

T2 sequence (O60658 480-820): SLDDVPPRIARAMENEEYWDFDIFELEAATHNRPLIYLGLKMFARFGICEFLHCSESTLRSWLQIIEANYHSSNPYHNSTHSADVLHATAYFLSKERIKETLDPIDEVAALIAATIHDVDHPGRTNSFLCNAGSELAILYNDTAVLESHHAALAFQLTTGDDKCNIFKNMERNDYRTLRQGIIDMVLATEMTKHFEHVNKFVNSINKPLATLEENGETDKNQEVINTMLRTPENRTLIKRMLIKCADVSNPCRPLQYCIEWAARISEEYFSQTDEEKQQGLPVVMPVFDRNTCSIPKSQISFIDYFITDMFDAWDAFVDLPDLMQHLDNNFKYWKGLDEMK
T3 sequence (O76083 241-566): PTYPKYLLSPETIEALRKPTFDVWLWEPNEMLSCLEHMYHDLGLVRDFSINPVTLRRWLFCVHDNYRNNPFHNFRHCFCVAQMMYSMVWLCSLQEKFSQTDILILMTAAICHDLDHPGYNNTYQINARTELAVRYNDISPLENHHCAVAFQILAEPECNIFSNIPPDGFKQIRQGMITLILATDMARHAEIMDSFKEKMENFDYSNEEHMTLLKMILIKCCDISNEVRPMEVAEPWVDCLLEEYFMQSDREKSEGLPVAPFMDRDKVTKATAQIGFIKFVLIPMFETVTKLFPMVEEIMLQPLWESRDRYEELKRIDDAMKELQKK
T1 sequence (Q01064 10-516): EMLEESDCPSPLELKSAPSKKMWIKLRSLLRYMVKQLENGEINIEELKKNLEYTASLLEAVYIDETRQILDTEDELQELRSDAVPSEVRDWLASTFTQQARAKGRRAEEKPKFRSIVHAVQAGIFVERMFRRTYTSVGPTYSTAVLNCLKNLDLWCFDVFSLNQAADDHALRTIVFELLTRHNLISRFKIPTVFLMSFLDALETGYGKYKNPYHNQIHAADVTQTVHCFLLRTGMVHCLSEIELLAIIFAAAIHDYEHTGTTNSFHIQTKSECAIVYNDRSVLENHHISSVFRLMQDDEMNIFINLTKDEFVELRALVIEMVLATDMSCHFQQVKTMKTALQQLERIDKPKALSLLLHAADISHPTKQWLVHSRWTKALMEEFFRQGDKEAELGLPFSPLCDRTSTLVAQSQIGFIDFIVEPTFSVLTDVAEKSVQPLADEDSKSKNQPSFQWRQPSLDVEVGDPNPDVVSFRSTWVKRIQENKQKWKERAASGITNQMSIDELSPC

Turning to `COc1cc(/C=C/C(=O)O)ccc1O` [Ferulic acid, reference compound], the ORAC in data set [1] stood at 1.6 trolox equivalents.

Turning to `C[C@@H](NC(=O)CCCC[C@@H]1CCSS1)c1nc2c(cnn2C2CCCC2)c(=O)[nH]1` [Compound 2, N-((1N)-1–(1-cyclopentyl-4-oxo-3a, 4,5,6-tetrahydro-1H-pyrazolo[3,4-d]pyrimi–din-6-yl)ethyl)-5-((R)-1,2-dithiolan-3-yl)pentanamide], in data set [1], the “ORAC-FL value / antioxidant activity (in words)” value is recorded as “low antioxidant activity” and the ORAC is recorded as 0.28 trolox equivalents. Moreover, the cellular viability result in data set [2] (100 μM, 48 h incubation) is listed as “no significant effect on cell viability”. The “cytotoxicity to SH-SY5Y cells (in words)” value in data set [2] is “not toxic”. At 1 µM the inhibition in data set [3] was 59%. For the same compound, the inhibition at 10 µM in data set [4] amounted to 9%.

Take `C[C@@H](NC(=O)/C=C/c1ccc(O)c(O)c1)c1nc2c(cnn2C2CCCC2)c(=O)[nH]1` [Compound 1b, (R, E)-N-(1–(1-cyclopentyl-4-oxo-4,5-dihydro-1H-pyrazolo[3,4-d]pyrimidin-6-yl)ethyl)-3–(3,4-dihydroxyphenyl)acrylamide]: the ORAC in data set [1] came to 2.5 trolox equivalents. Also, the 50% inhibitory concentration (IC50) in data set [5] (setting [9]) stood at 64 ± 2 nM.

In turn, `C[C@@H](NC(=O)/C=C/c1ccc(N(C)C)cc1)c1nc2c(cnn2C2CCCC2)c(=O)[nH]1` [Compound 1i, (R, E)-N-(1–(1-cyclopentyl-4-oxo-4,5-dihydro-1H-pyrazolo[3,4-d]pyrimidin-6-yl)ethyl)-3–(4-(dimethylamino)phenyl)acrylamide] came in with an ORAC in data set [1] of 1.00 trolox equivalents. Moreover, the half-maximal inhibitory concentration (IC50) in data set [5] (setting [9]) was found to be 133 ± 22 nM.

In the case of `C[C@@H](NC(=O)/C=C/c1ccc(C(F)(F)F)cc1)c1nc2c(cnn2C2CCCC2)c(=O)[nH]1` [Compound 1k, (R, E)-N-(1–(1-cyclopentyl-4-oxo-4,5-dihydro-1H-pyrazolo[3,4-d]pyrimidin-6-yl)ethyl)-3–(4-(trifluoromethyl)phenyl)acrylamide], in data set [1], the “ORAC-FL value / antioxidant activity (in words)” value was “low ORAC-FL values” and the ORAC stood at 0.02 trolox equivalents. The IC50 in data set [5] (setting [9]) was found to be 130 ± 6 nM.

For `Cc1c(C)c2c(c(C)c1O)CCC(C)(C(=O)N[C@H](C)c1nc3c(cnn3C3CCCC3)c(=O)[nH]1)O2` (stereo partly drawn) [Compound 3, N-((R)-1–(1-cyclopentyl-4-oxo-4,5-dihydro-1H-pyrazolo[3,4-d]pyrimidin-6-yl)ethyl) -6-hydroxy-2,5,7,8-tetramethylchromane-2-carboxamide], the ORAC in data set [1] was 0.24 trolox equivalents. Moreover, the half-inhibitory concentration (IC50) in data set [5] (setting [9]) is more than 500 nM.

`C[C@@H](NC(=O)/C=C/c1ccc(O)cc1)c1nc2c(cnn2C2CCCC2)c(=O)[nH]1` [Compound 1g, (R, E)-N-(1–(1-cyclopentyl-4-oxo-4,5-dihydro-1H-pyrazolo[3,4-d]pyrimidin-6-yl)ethyl)-3–(4-hydroxyphenyl)acrylamide]: the ORAC in data set [1] is on record as 2.9 trolox equivalents. Also, in data set [5] (setting [9]), the 50% inhibitory concentration (IC50) turned out to be 63 ± 3 nM.

Regarding `COc1cc(/C=C/C(=O)N[C@H](C)c2nc3c(cnn3C3CCCC3)c(=O)[nH]2)ccc1O` [Compound 1a, (R, E)-N-(1–(1-cyclopentyl-4-oxo-4,5-dihydro-1H-pyrazolo[3,4-d]pyrimidin-6-yl)ethyl)-3–(4-hydroxy-3-methoxyphenyl)acrylamide], the ORAC in data set [1] came to 2.4 trolox equivalents. Moreover, the IC50 in data set [5] (setting [9]) was determined as 126 ± 15 nM.

In data set [1], `C[C@@H](NC(=O)Cc1ccc(O)c(O)c1)c1nc2c(cnn2C2CCCC2)c(=O)[nH]1` [Compound 1l, (R, E)-N-(1–(1-cyclopentyl-4-oxo-4,5-dihydro-1H-pyrazolo[3,4-d]pyrimidin-6-yl)ethyl)-2–(3,4-dihydroxyphenyl)acetamide] had an ORAC of 2.6 trolox equivalents. Also, in data set [5] (setting [9]), the IC50 was 57 ± 4 nM.

For `C[C@@H](NC(=O)/C=C/c1cccc(Cl)c1)c1nc2c(cnn2C2CCCC2)c(=O)[nH]1` [Compound 1j, (R, E)-N-3–(3-chlorophenyl)-N-(1–(1-cyclopentyl-4-oxo-4,5-dihydro-1H-pyrazolo[3,4-d]pyrimidin-6-yl)ethyl)acrylamide], in data set [1], the “ORAC-FL value / antioxidant activity (in words)” value was “low ORAC-FL values” and the ORAC was 0.08 trolox equivalents. Further, the IC50 in data set [5] (setting [9]) came out at 186 ± 7 nM.

With `COc1cccc(/C=C/C(=O)N[C@H](C)c2nc3c(cnn3C3CCCC3)c(=O)[nH]2)c1` [Compound 1f, (R, E)-N-(1–(1-cyclopentyl-4-oxo-4,5-dihydro-1H-pyrazolo[3,4-d]pyrimidin-6-yl)ethyl)-3–(3-methoxyphenyl)acrylamide], in data set [1], the “ORAC-FL value / antioxidant activity (in words)” value is on record as “low ORAC-FL values” and the ORAC is 0.12 trolox equivalents. For the same compound, in data set [5] (setting [9]), the IC50 is 190 ± 7 nM.

In the case of `C[C@@H](NC(=O)/C=C/c1cccc(O)c1)c1nc2c(cnn2C2CCCC2)c(=O)[nH]1` [Compound 1h, (R, E)-N-(1–(1-cyclopentyl-4-oxo-4,5-dihydro-1H-pyrazolo[3,4-d]pyrimidin-6-yl)ethyl)-3–(3-hydroxyphenyl)acrylamide], the ORAC in data set [1] turned out to be 3.3 trolox equivalents. Also, the “cytotoxicity to SH-SY5Y cells (in words)” value in data set [2] is on record as “no cytotoxicity; also recorded: not toxic”. For the same compound, in data set [6] (40 μM), the viability at 48 h, 40 µM is approximately 90%. In addition, the viability at 48 h, 100 µM in data set [6] (100 μM) was approximately 70%. Besides, 1 µM produced 13% inhibition in data set [3]. Besides, the “fold of selectivity against PDE9 over PDE1B” value in data set [7] is more than 25 fold. In addition, the inhibition at 10 µM in data set [4] was found to be 10%. For the same compound, in data set [4] (estimated from inhibition at 10 μM), the “fold of selectivity against PDE9 over PDE8A” value is reported as more than 250 fold. Also, the 50% inhibitory concentration (IC50) in data set [5] (setting [9]) came to 56 ± 7 nM; in data set [5] (Table 2, read-out: IC50 (nM) of PDE9A) it was 56 ± 1 nM.

As for `C[C@@H]1CN(Cc2ncccn2)C[C@H]1c1nc2c(cnn2C2CCOCC2)c(=O)[nH]1` [PF-04447943, 6-[(3S,4S)-4-Methyl-1-(pyrimidin-2-ylmethyl)pyrrolidin-3-yl]-1-(tetrahydro-2H-pyran-4-yl)-1,5-dihydro-4H-pyrazolo[3,4-d]pyrimidin-4-one], the IC50 in data set [8] was 1.39 µM.

Take `COc1ccc(/C=C/C(=O)N[C@H](C)c2nc3c(cnn3C3CCCC3)c(=O)[nH]2)cc1OC` [Compound 1c, (R, E)-N-(1–(1-cyclopentyl-4-oxo-4,5-dihydro-1H-pyrazolo[3,4-d]pyrimidin-6-yl)ethyl)-3– (3,4-dimethoxyphenyl)acrylamide]: in data set [1], the “ORAC-FL value / antioxidant activity (in words)” value is “low ORAC-FL values” and the ORAC is on record as 0.23 trolox equivalents. Further, the half-maximal inhibitory concentration (IC50) in data set [5] (setting [9]) worked out at 65 ± 4 nM.

In data set [1], `COc1ccc(/C=C/C(=O)N[C@H](C)c2nc3c(cnn3C3CCCC3)c(=O)[nH]2)cc1O` [Compound 1d, (R, E)-N-(1–(1-cyclopentyl-4-oxo-4,5-dihydro-1H-pyrazolo[3,4-d]pyrimidin-6-yl)ethyl)-3–(3-hydroxy-4-methoxyphenyl)acrylamide] returned an ORAC of 1.26 trolox equivalents. For the same compound, the IC50 in data set [5] (setting [9]) came to 83 ± 11 nM.
